Read-outs that look alike come from different tables or passages of the source.
Target: T1, cloned human dopamine D3 receptors (Homo sapiens, UniProt P35462)
T1 construct: expressed in transfected cells; membrane homogenate
Experiment: [N-Methyl-3H]Spiroperidol binding to cloned human dopamine D3 receptors
In short: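 Stably transfected CHO cells expressing cloned human D3 receptor were used as membranes homogenized in 10% DMSO. Ligand was [N-methyl-3H]spiroperidol displacement.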

T1 sequence (P35462 whole entry): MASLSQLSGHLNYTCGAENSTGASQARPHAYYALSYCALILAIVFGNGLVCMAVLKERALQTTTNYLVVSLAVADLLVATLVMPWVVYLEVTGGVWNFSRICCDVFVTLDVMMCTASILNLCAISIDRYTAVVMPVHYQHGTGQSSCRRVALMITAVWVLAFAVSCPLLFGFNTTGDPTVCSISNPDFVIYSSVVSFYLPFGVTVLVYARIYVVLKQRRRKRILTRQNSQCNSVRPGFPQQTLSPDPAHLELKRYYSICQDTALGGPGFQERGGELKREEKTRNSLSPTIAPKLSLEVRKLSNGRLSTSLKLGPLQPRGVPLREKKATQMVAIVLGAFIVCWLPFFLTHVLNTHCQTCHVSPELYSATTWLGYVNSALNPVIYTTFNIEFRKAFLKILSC

| SMILES | Ki (read-out: D3 Ki) [nM] | Ki (D3 Ki (nM)) [nM] |
| --- | --- | --- |
| Cn1nc(N2CCN(C[C@@H]3C[C@H]3C(=O)NC3CCN(CC4CCCCC4)CC3)CC2)c2sccc21 [A002287757] | 2.41 |  |
| CN1CCN(CCCNC(=O)[C@@H]2C[C@H]2CN2CCN(c3nn(-c4ccc(OC(F)(F)F)cc4)c4ccsc34)CC2)CC1 [A002287758] | 139 |  |
| O=C([C@@H]1C[C@H]1CN1CCC(c2noc3ccsc23)CC1)N1CCN(c2ccccn2)CC1 [compound 830252] | 110 |  |
| CC(=O)N1CCC(CNC(=O)[C@@H]2C[C@H]2CN2CCN(c3csc4cc(C(F)(F)F)ccc34)CC2)CC1 [compound 833065] | 692 |  |
| O=C(N[C@H]1CC[C@H](O)CC1)C1(CCN2CCC(c3noc4ccsc34)CC2)CC1 [compound 832317] | 943 |  |
| O=C(NCCN1CCNCC1)[C@@H]1C[C@H]1CN1CCN(c2csc3cc(C(F)(F)F)ccc23)CC1 [compound 833322] | 12.8 |  |
| O=C(Cc1ccccc1)NNC(=O)C1CC1CN1CCC(c2noc3ccsc23)CC1 (racemic) [compound 831452] | 115 |  |
| O=C(NCCCN1CCOCC1)C1(CCN2CCC(c3noc4ccsc34)CC2)CC1 [compound 832240] | 186 |  |
| Cn1nc(C2CCN(C[C@@H]3C[C@H]3C(=O)N3CCC(Cn4ccnc4)CC3)CC2)c2cccc(C(F)(F)F)c21 [A002329095] | 26.5 |  |
| CN1CCN(CCCNC(=O)[C@@H]2C[C@H]2CN2CCN(c3csc4cc(C(F)(F)F)ccc34)CC2)CC1 [compound 832579] | 6.29 |  |
| COc1c(F)ccc2c(C3CCN(CC4CC4C(=O)NC4CCC(C)CC4)CC3)noc12 (racemic) [compound 830134] | 0.602 |  |
| O=C(NCCN1CCNC1=O)[C@@H]1C[C@H]1CN1CCC(c2noc3ccsc23)CC1 [compound 832529] | 146 |  |
| Cc1ccc(S(=O)(=O)n2nc(N3CCN(C[C@@H]4C[C@H]4C(=O)NCCCn4ccnc4)CC3)c3sccc32)cc1 [compound 831267] | 28.3 |  |
| O=C(NCCCCc1cccnc1)[C@@H]1C[C@H]1CN1CCC(c2noc3ccsc23)CC1 [compound 832530] | 16 |  |
| COc1ccc2c(c1)c(N1CCN(C[C@@H]3C[C@H]3C(=O)N3CCN(Cc4ccc(C)cc4)CC3)CC1)nn2C [compound 833125] | 70.8 |  |
| COc1cccc2c(C3CCN(C[C@@H]4C[C@H]4C(=O)NC4CC5CC(C4C)C5(C)C)CC3)nn(C)c12 (some centres unmarked) [compound 834171] | 65.2 |  |
| COc1c(F)ccc2c(C3CCN(C[C@@H]4C[C@H]4C(=O)NCCCn4ccnc4)CC3)noc12 [compound 831309] | 40.6 |  |
| O=C(NCCc1cccs1)C1CC1CN1CCC(c2noc3ccsc23)CC1 (racemic) [compound 831385] | 22.7 |  |
| O=C(NCCCc1cc[nH]c1)C1CC1CN1CCC(c2noc3ccsc23)CC1 (racemic) [compound 832192] | 7.81 |  |
| O=C(NCCCn1ccnc1)[C@@H]1C[C@H]1CN1CCN(c2n[nH]c3ccsc23)CC1 [compound 831315] | 29.3 |  |
| COc1ccc2c(c1)c(N1CCN(C[C@@H]3C[C@H]3C(=O)NC[C@@H]3CCNC3)CC1)nn2C [compound 833632] | 4.06 |  |
| O=C(NC1CCNCC1)[C@@H]1C[C@H]1CN1CCC(c2csc3cc(C(F)(F)F)ccc23)CC1 [A002287513] | 3.57 |  |
| O=C(NCc1ccco1)C1CC1CN1CCC(c2noc3ccsc23)CC1 (racemic) [compound 827393] | 391 |  |

| SMILES | Ki (read-out: D3 Ki) [nM] | Ki (D3 Ki (nM)) [nM] |
| --- | --- | --- |
| O=C(C1CC1CN1CCC(c2noc3ccsc23)CC1)N1CCN(S(=O)(=O)C=Cc2ccccc2)CC1 (racemic) [compound 831838] | 141 |  |
| O=C(NC1CCN(CC2CCCCC2)CC1)[C@@H]1C[C@H]1CN1CCN(c2nn(-c3ccc(OC(F)(F)F)cc3)c3ccsc23)CC1 [A002437084] | 7.11 |  |
| Cc1ccc2c(c1)c(C1CCN(C[C@@H]3C[C@H]3C(=O)N[C@H]3CC[C@H](C)CC3)CC1)nn2C [compound 834059] | 2.76 |  |
| O=C(NC1CCN(Cc2ccccc2)CC1)C1CC1CN1CCC(c2noc3ccsc23)CC1 (racemic) [compound 831457] | 1.83 |  |
| O=C([C@@H]1C[C@H]1CN1CCN(c2nc3cccc4c3n2CCC4)CC1)N1CCC[C@@H](Cn2ccnc2)C1 [A002438663] | 1.37 |  |
| Cc1ccc(CCNC(=O)C2CC2CN2CCC(c3noc4ccsc34)CC2)cc1 (racemic) [compound 831803] | 7.44 |  |
| O=C(NCc1cccc(OC(F)(F)F)c1)[C@@H]1C[C@H]1CN1CCN(c2csc3cc(C(F)(F)F)ccc23)CC1 [compound 833062] | 55.4 |  |
| O=C(NCCCN1CCOCC1)C1(CCN2CCN(c3csc4cc(C(F)(F)F)ccc34)CC2)CC1 [compound 832518] | 98.2 |  |
| CC(C)(C)c1ccc(CN2CCN(C(=O)C3CC3CN3CCC(c4noc5ccsc45)CC3)CC2)cc1 (racemic) [compound 832157] | 0.226 |  |
| COc1cccc2c(C3CCN(C[C@@H]4C[C@H]4C(=O)NC4CC5CCC(C4)N5C)CC3)nn(C)c12 (some centres unmarked) [A002328939] | 201 |  |
| COc1c(F)ccc2c(C3CCN(CCC4(C(=O)NCCCn5ccnc5)CC4)CC3)noc12 [compound 833378] | 23.7 |  |
| COc1ccc2c(c1)c(N1CCN(C[C@@H]3C[C@H]3C(=O)N3CCC(n4ccnc4)CC3)CC1)nn2C [compound 833123] | 26.3 |  |
| COc1ccc2[nH]nc(N3CCN(C[C@@H]4C[C@H]4C(=O)N[C@H]4CC[C@H](C)CC4)CC3)c2c1 [compound 833704] | 2.3 |  |
| COc1c(F)ccc2c(C3CCN(C[C@H]4C[C@@H]4C(=O)N[C@H]4CC[C@H](C)CC4)CC3)noc12 [compound 831360] | 17.1 |  |
| CCCc1cc(N2CCN(CC3CC3C(=O)NC3CCC(C)CC3)CC2)nc(C(C)(C)C)n1 (racemic) [compound 817275] | 3.34 |  |
| O=C(N[C@H]1CC[C@H](O)CC1)[C@@H]1C[C@H]1CN1CCC(c2cc3ccccc3s2)CC1 [compound 831950] | 5.48 |  |
| O=C([C@@H]1C[C@H]1CN1CCC(c2noc3ccsc23)CC1)N1CCC2(CC1)OCCO2 [compound 829466] |  | 24.8 |
| COc1ccc(C2=CCN(C(=O)C3CC3CN3CCC(c4noc5ccsc45)CC3)CC2)cc1 (racemic) [compound 831599] | 49.8 |  |
| O=C(NC1CCN(Cc2ncc[nH]2)CC1)[C@@H]1C[C@H]1CN1CCN(c2csc3cc(C(F)(F)F)ccc23)CC1 [compound 832583] | 1.61 |  |
| CCC1CCC(NC(=O)C2CC2CN2CCN(c3nn(-c4ccc(C(F)(F)F)cc4)c4ccccc34)CC2)CC1 (racemic) [compound 830046] | 16.5 |  |
| O=C(NC1CCCCC1)[C@H](O)CCN1CCC(c2noc3ccsc23)CC1 [compound 830573] | 547 |  |
| CC1CCC(NC(=O)C2CCC2CN2CCC(c3noc4ccsc34)CC2)CC1 (racemic) [compound 829830] | 65.3 |  |
| O=C(C1CC1CN1CCC(c2noc3ccsc23)CC1)N1CCN(CCCc2ccccc2)CC1 (racemic) [compound 832197] | 17.1 |  |

| SMILES | Ki (read-out: D3 Ki) [nM] | Ki (D3 Ki (nM)) [nM] |
| --- | --- | --- |
| O=C(NC1CCN(Cc2ccc(Cl)cc2)CC1)[C@@H]1C[C@H]1CN1CCN(c2csc3cc(C(F)(F)F)ccc23)CC1 [compound 832737] | 5.42 |  |
| O=C([C@@H]1C[C@H]1CN1CCN(c2csc3cc(C(F)(F)F)ccc23)CC1)N1CCN(CCOCCO)CC1 [compound 832581] | 67.3 |  |
| Cc1ccc2c(c1)c(C1CCN(C[C@@H]3C[C@H]3C(=O)N3CCC[C@@H](Cn4ccnc4)C3)CC1)nn2C [A002437354] | 1.03 |  |
| O=C([C@@H]1C[C@H]1CN1CCN(c2csc3cc(C(F)(F)F)ccc23)CC1)N1CCN(Cc2ccc(Cl)c(Cl)c2)CC1 [compound 831881] | 109 |  |
| Cc1ccc2c(c1)c(C1CCN(C[C@@H]3C[C@H]3C(=O)NC3C4CCC3CN(C)C4)CC1)nn2C (some centres unmarked) [A002328940] | 26.8 |  |
| C[C@H]1CC[C@H](NC(=O)[C@@H]2C[C@H]2CN2CCN(c3nn(-c4ccc(F)cc4)c4ccsc34)CC2)CC1 [compound 832850] | 0.264 |  |
| O=C(NCCCn1ccnc1)[C@@H]1C[C@H]1CN1CCN(c2nn(-c3ccc(C(F)(F)F)cc3)c3ccsc23)CC1 [compound 832634] | 7.63 |  |
| O=C(NC1CCN(C(=O)Nc2ccc(Cl)cc2)CC1)[C@@H]1C[C@H]1CN1CCC(c2noc3ccsc23)CC1 [compound 833714] | 4.16 |  |
| CN1CCCN(C(=O)C2CC2CN2CCC(c3noc4ccsc34)CC2)CC1 (racemic) [compound 829597] | 226 |  |
| Cn1nc(C2CCN(C[C@@H]3C[C@H]3C(=O)NCC3CCNCC3)CC2)c2sccc21 [A002440434A] | 462 |  |
| O=C(NC1CCN(C(=O)Nc2ccc(F)cc2)CC1)C1CC1CN1CCC(c2noc3ccsc23)CC1 (racemic) [832576ES] | 17.5 |  |
| CC1CCC(NC(=O)C2CC2CN2CCCN(c3noc4ccsc34)CC2)CC1 (racemic) [compound 830126] | 23.8 |  |
| N=C(N)N1CCC(CNC(=O)[C@@H]2C[C@H]2CN2CCN(c3csc4cc(C(F)(F)F)ccc34)CC2)CC1 [compound 832496] | 3.66 |  |
| Cc1ccc2[nH]cc(CCNC(=O)[C@@H]3C[C@H]3CN3CCC(c4noc5ccsc45)CC3)c2c1 [compound 831277] | 5.38 |  |
| O=C(NCCc1c[nH]c2cc(F)ccc12)[C@@H]1C[C@H]1CN1CCC(c2noc3ccsc23)CC1 [compound 830831] | 3.19 |  |
| O=C(NC1CCN(Cc2ccc(F)c(F)c2)CC1)[C@@H]1C[C@H]1CN1CCN(c2csc3cc(C(F)(F)F)ccc23)CC1 [compound 833512] | 2.17 |  |
| O=C(NCCc1cccc(C(F)(F)F)c1)[C@@H]1C[C@H]1CN1CCC(c2noc3ccsc23)CC1 [compound 833130] | 8.85 |  |
| O=C(NC1CCN(C(=O)c2cccc(Cl)c2)CC1)C1CC1CN1CCC(c2noc3ccsc23)CC1 (racemic) [compound 832488] | 39.5 |  |
| O=C([C@@H]1C[C@H]1CN1CCC(c2noc3ccsc23)CC1)N1CCN(CCc2cccs2)CC1 [compound 833163] | 17.5 |  |
| COc1ccc(CCNC(=O)C2CC2CN2CCC(c3noc4ccsc34)CC2)cc1OC (racemic) [compound 832186] | 16.1 |  |
| O=C(NCCC(c1ccccc1)c1ccccc1)C1CC1CN1CCC(c2noc3ccsc23)CC1 (racemic) [compound 832191] | 8.06 |  |
| COc1cccc2c(C3CCN(C[C@@H]4C[C@H]4C(=O)N4CCC(C(=O)c5ccc(F)cc5)CC4)CC3)noc12 [compound 831810] | 124 |  |

From US7772252B2, “Heterocyclic substituted carbonyl derivatives and their use as dopamine D3 receptor ligands” (Aventis Pharmaceuticals Inc., priority 2001, dated 2010)
